Measured values taken from patent publication US12153287B2, “Sustained fatty acid release from contact lens” (CooperVision International Limited, priority 2022, dated 2024).

Biological target: T1, recombinant human PLA2G2A (sPLA2-IIA) (Homo sapiens, UniProt P14555)
T1 sequence (P14555 21-144): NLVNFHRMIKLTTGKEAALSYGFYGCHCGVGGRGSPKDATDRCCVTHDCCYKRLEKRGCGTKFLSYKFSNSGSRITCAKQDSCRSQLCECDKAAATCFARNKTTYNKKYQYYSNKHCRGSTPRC
Assay: Susceptibility of phospholipid digestion by sPLA2-IIA (lens pieces in ATF with and without sPLA2, LCMS of released fatty acid)
Details: phospholipid present in a silicone hydrogel contact lens body
Experimental: Each phospholipid-loaded lens is removed from its package and placed in a 6 mL glass vial containing 5 mL of the ATF described in Example 2 at room temperature on a shaker at 125 rpm overnight to elute any free fatty acid that may be present in the lens.
Each lens is rinsed in a 6 ml glass vial containing a fresh aliquot of 5 mL ATF for 30 minutes prior to running the digestion assay.
Two 4 mm pieces are cut from each lens. One piece of each lens is placed in a tube with 100 μL ATF and the other piece is placed in a tube containing 100 μL ATF+sPLA2. The tubes are incubated at 35±2° C. for 4 hours with no shaking.
T=0 hr HPLC vials are also prepared (50 μl ATF+500 μl IPA). All vials are sonicated for 15 minutes and centrifuged. […]
The supernatants are injected on an LCMS instrument equipped with an ACQUITY UPLC BEH C18 1.7 μg, 2.1 mm×15 cm column and running a mobile phase gradient from 65% A to 90% B at a flow rate of 0.35 mL/min with A=40% acetonitrile in water with 10 mM ammonium acetate and 0.2% (v/v) ammonium hydroxide, and B=10% acetonitrile in IPA with 10 mM ammonium acetate and 0.2% (v/v) ammonium hydroxide. […] The peak for the particular fatty acid of interest in the supernatants (i.e., the fatty acid that is released from the sn-2 position of the phospholipid in the contact lens) is measured. The ratio of fatty acid peak area in ATF with and without sPLA2 is calculated. […]

Row | SMILES | Susceptibility to digestion by sPLA2 enzymes found in human tears
1 | CCCCCCCCCCCCCC(=O)OC[C@H](COP(=O)([O-])OCC[N+](C)(C)C)OC(=O)CCCCCCCCCCCCC [DMPC, 1,2-dimyristoyl-sn-glycero-3-phosphocholine] | not susceptible to digestion
2 | CCCCCCCC/C=C\CCCCCCCC(=O)OC[C@H](COP(=O)([O-])OCC[N+](C)(C)C)OC(=O)CCCCCCC/C=C\CCCCCCCC [DOPC, 1,2-dioleoyl-sn-glycero-3-phosphocholine] | not susceptible to digestion
